Measurements as given in ChEMBL document CHEMBL4308841, “Synthesis, in vitro antiproliferative activity, and kinase inhibitory effects of pyrazole-containing diarylureas and diarylamides” (Eur J Med Chem, 2018).

System: SK-MEL-5
Assay: Growth inhibition of human SK-MEL-5 cells assessed as cell growth at 10 uM incubated for 48 hrs by sulforhodamine B assay relative to control
Type: functional
Details: SK-MEL-5, 48 h, read-out: Activity

Row | SMILES | growth at 10 µM [%]
1 | COc1cc(Cl)cc(-c2nn(-c3cccc(NC(=O)Nc4cc(C(F)(F)F)cc(C(F)(F)F)c4)c3)cc2-c2ccncc2)c1 | -79.4

System: SF-539
Assay: Growth inhibition of human SF539 cells assessed as cell growth at 10 uM incubated for 48 hrs by sulforhodamine B assay relative to control
Type: functional
Details: SF-539, 48 h, read-out: Activity

Row | SMILES | growth at 10 µM [%]
2 | COc1cc(Cl)cc(-c2nn(-c3cccc(NC(=O)Nc4cc(C(F)(F)F)cc(C(F)(F)F)c4)c3)cc2-c2ccncc2)c1 | -17.7

System: MCF7
Assay: Growth inhibition of human MCF7 cells assessed as cell growth at 10 uM incubated for 48 hrs by sulforhodamine B assay relative to control
Type: functional
Details: MCF7, 48 h, read-out: Activity

Row | SMILES | growth at 10 µM [%]
3 | COc1cc(Cl)cc(-c2nn(-c3cccc(NC(=O)Nc4cc(C(F)(F)F)cc(C(F)(F)F)c4)c3)cc2-c2ccncc2)c1 | 3.81

System: SW-620
Assay: Growth inhibition of human SW620 cells assessed as cell growth at 10 uM incubated for 48 hrs by sulforhodamine B assay relative to control
Type: functional
Details: SW-620, 48 h, read-out: Activity

Row | SMILES | growth at 10 µM [%]
4 | COc1cc(Cl)cc(-c2nn(-c3cccc(NC(=O)Nc4cc(C(F)(F)F)cc(C(F)(F)F)c4)c3)cc2-c2ccncc2)c1 | 7.18

System: OVCAR-8
Assay: Growth inhibition of human OVCAR8 cells assessed as cell growth at 10 uM incubated for 48 hrs by sulforhodamine B assay relative to control
Type: functional
Details: OVCAR-8, 48 h, read-out: Activity

Row | SMILES | growth at 10 µM [%]
5 | COc1cc(Cl)cc(-c2nn(-c3cccc(NC(=O)Nc4cc(C(F)(F)F)cc(C(F)(F)F)c4)c3)cc2-c2ccncc2)c1 | -2.46

System: A549
Assay: Growth inhibition of human A549/ATCC cells assessed as cell growth at 10 uM incubated for 48 hrs by sulforhodamine B assay relative to control
Type: functional
Details: A549, 48 h, read-out: Activity

Row | SMILES | growth at 10 µM [%]
6 | COc1cc(Cl)cc(-c2nn(-c3cccc(NC(=O)Nc4cc(C(F)(F)F)cc(C(F)(F)F)c4)c3)cc2-c2ccncc2)c1 | 5.14

System: T47D
Assay: Growth inhibition of human T47D cells assessed as cell growth at 10 uM incubated for 48 hrs by sulforhodamine B assay relative to control
Type: functional
Details: read-out: Activity

Row | SMILES | growth at 10 µM [%]
7 | COc1cc(Cl)cc(-c2nn(-c3cccc(NC(=O)Nc4cc(C(F)(F)F)cc(C(F)(F)F)c4)c3)cc2-c2ccncc2)c1 | 6.56

System: SNB-75
Assay: Growth inhibition of human SNB75 cells assessed as cell growth at 10 uM incubated for 48 hrs by sulforhodamine B assay relative to control
Type: functional
Details: SNB-75, 48 h, read-out: Activity

Row | SMILES | growth at 10 µM [%]
8 | COc1cc(Cl)cc(-c2nn(-c3cccc(NC(=O)Nc4cc(C(F)(F)F)cc(C(F)(F)F)c4)c3)cc2-c2ccncc2)c1 | 11.3

System: K562
Assay: Growth inhibition of human K562 cells assessed as cell growth at 10 uM incubated for 48 hrs by sulforhodamine B assay relative to control
Type: functional
Details: K562, 48 h, read-out: Activity

Row | SMILES | growth at 10 µM [%]
9 | COc1cc(Cl)cc(-c2nn(-c3cccc(NC(=O)Nc4cc(C(F)(F)F)cc(C(F)(F)F)c4)c3)cc2-c2ccncc2)c1 | 6.4

System: HL-60(TB)
Assay: Growth inhibition of human HL-60(TB) cells assessed as cell growth at 10 uM incubated for 48 hrs by sulforhodamine B assay relative to control
Type: functional
Details: HL-60, 48 h, read-out: Activity

Row | SMILES | growth at 10 µM [%]
10 | COc1cc(Cl)cc(-c2nn(-c3cccc(NC(=O)Nc4cc(C(F)(F)F)cc(C(F)(F)F)c4)c3)cc2-c2ccncc2)c1 | -20.1

System: NCI-H322M
Assay: Growth inhibition of human NCI-H322M cells assessed as cell growth at 10 uM incubated for 48 hrs by sulforhodamine B assay relative to control
Type: functional
Details: read-out: Activity

Row | SMILES | growth at 10 µM [%]
11 | COc1cc(Cl)cc(-c2nn(-c3cccc(NC(=O)Nc4cc(C(F)(F)F)cc(C(F)(F)F)c4)c3)cc2-c2ccncc2)c1 | 11

System: SK-MEL-28
Assay: Growth inhibition of human SK-MEL-28 cells assessed as cell growth at 10 uM incubated for 48 hrs by sulforhodamine B assay relative to control
Type: functional
Details: SK-MEL-28, 48 h, read-out: Activity

Row | SMILES | growth at 10 µM [%]
12 | COc1cc(Cl)cc(-c2nn(-c3cccc(NC(=O)Nc4cc(C(F)(F)F)cc(C(F)(F)F)c4)c3)cc2-c2ccncc2)c1 | 6.55

System: PC-3
Assay: Growth inhibition of human PC3 cells assessed as cell growth at 10 uM incubated for 48 hrs by sulforhodamine B assay relative to control
Type: functional
Details: PC-3, 48 h, read-out: Activity

Row | SMILES | growth at 10 µM [%]
13 | COc1cc(Cl)cc(-c2nn(-c3cccc(NC(=O)Nc4cc(C(F)(F)F)cc(C(F)(F)F)c4)c3)cc2-c2ccncc2)c1 | -6.27

System: HCC 2998
Assay: Growth inhibition of human HCC2998 cells assessed as cell growth at 10 uM incubated for 48 hrs by sulforhodamine B assay relative to control
Type: functional
Details: HCC 2998, 48 h, read-out: Activity

Row | SMILES | growth at 10 µM [%]
14 | COc1cc(Cl)cc(-c2nn(-c3cccc(NC(=O)Nc4cc(C(F)(F)F)cc(C(F)(F)F)c4)c3)cc2-c2ccncc2)c1 | 9.5

System: RPMI-8226
Assay: Growth inhibition of human RPMI8226 cells assessed as cell growth at 10 uM incubated for 48 hrs by sulforhodamine B assay relative to control
Type: functional
Details: RPMI-8226, 48 h, read-out: Activity

Row | SMILES | growth at 10 µM [%]
15 | COc1cc(Cl)cc(-c2nn(-c3cccc(NC(=O)Nc4cc(C(F)(F)F)cc(C(F)(F)F)c4)c3)cc2-c2ccncc2)c1 | -17.5

System: SNB-19
Assay: Growth inhibition of human SNB19 cells assessed as cell growth at 10 uM incubated for 48 hrs by sulforhodamine B assay relative to control
Type: functional
Details: SNB-19, 48 h, read-out: Activity

Row | SMILES | growth at 10 µM [%]
16 | COc1cc(Cl)cc(-c2nn(-c3cccc(NC(=O)Nc4cc(C(F)(F)F)cc(C(F)(F)F)c4)c3)cc2-c2ccncc2)c1 | 26.1

System: SR
Assay: Growth inhibition of human SR cells assessed as cell growth at 10 uM incubated for 48 hrs by sulforhodamine B assay relative to control
Type: functional
Details: read-out: Activity

Row | SMILES | growth at 10 µM [%]
17 | COc1cc(Cl)cc(-c2nn(-c3cccc(NC(=O)Nc4cc(C(F)(F)F)cc(C(F)(F)F)c4)c3)cc2-c2ccncc2)c1 | -37.9
